The record followed here is EPA's ToxRefDB 2.

One data set relates to rabbit. Particulars: Prenatal developmental toxicity study, Oral, Gavage/Intubation, dose end: 19 GD, group: maternal.
For data set [1], the system named is rat. Particulars: Sub-acute repeat dose toxicity; wistar; Injection; Intravenous; dose end: 14 day; group: systemic; systemic / in life observation / clinical signs / skin discoloration + systemic / pathology microscopic / skin / inflammation + systemic / ….
The subject of data set [2] is rat. Particulars: Fertility (Segment I); Oral; Gavage/Intubation; dose end: 1 generation; group: parental; systemic / in life observation / body weight / body weight gain + systemic / in life observation / food consumption / food consumption.
Data set [3] concerns primate. Particulars: Chronic toxicity, Oral, Gavage/Intubation, dose end: 182 day, group: systemic.
The test system of data set [4] is primate. Particulars: Sub-acute repeat dose toxicity, Injection, Intravenous, dose end: 14 day, group: systemic.
Data set [5] has as its system rat. Particulars: Sub-acute repeat dose toxicity, wistar, Oral, Feed, dose end: 14 day, group: systemic.
In data set [6] the test system is rat. Particulars: Sub-acute repeat dose toxicity, wistar, Oral, Gavage/Intubation, dose end: 14 day, group: systemic.
For data set [7], the system named is mouse. Particulars: Chronic toxicity, cd1, Oral, Feed, dose end: 109 week, group: systemic.
Data set [8] has as its system mouse. Particulars: Subchronic oral toxicity in rodents, b6c3f1, Gavage/Intubation, dose end: 13 week, group: systemic.
Data set [9] deals with rat. Particulars: Sub-acute repeat dose toxicity; fischer; Oral; Gavage/Intubation; dose end: 16 day; group: systemic; systemic / in life observation / clinical signs / altered breathing rate + systemic / in life observation / clinical signs / ataxia + ….
Data set [10] relates to mouse. Particulars: Carcinogenicity, b6c3f1, Oral, Gavage/Intubation, dose end: 103 week, group: systemic.
Data set [11] concerns mouse. Particulars: Sub-acute repeat dose toxicity; b6c3f1; Oral; Gavage/Intubation; dose end: 16 day; group: systemic; systemic / in life observation / clinical signs / altered breathing rate + systemic / in life observation / clinical signs / ataxia + ….
Data set [12] concerns rat. Particulars: Chronic toxicity, sprague dawley, Oral, Feed, dose end: 110 week.
Data set [13] has as its system rat. Particulars: Subchronic oral toxicity in rodents, fischer, Gavage/Intubation, dose end: 13 week, group: systemic.
Data set [14] has as its system rat. Particulars: Carcinogenicity; fischer; Oral; Gavage/Intubation; dose end: 103 week; group: systemic; systemic / pathology microscopic / kidney / nephropathy + systemic / pathology microscopic / liver / degeneration + systemic / pathology ….
For data set [15], the system named is rat. Particulars: Multigenerational reproductive toxicity study, other, Oral, Feed, dose end: 3 generation, group: parental.
Where [16] appears, read: reproductive / reproductive performance / aborted / aborted + systemic / in life observation / body weight / body weight + systemic / in ….
Setting [17] is: systemic / clinical chemistry / protein / protein + systemic / hematology / red blood cell distribution width (rdw) / red blood cell ….
[18] abbreviates: systemic / pathology gross / lymph node / enlarged + systemic / in life observation / clinical signs / salivation + systemic / in life ….
Where [19] appears, read: systemic / clinical chemistry / albumin / albumin + systemic / clinical chemistry / globulins / globulins + systemic / clinical chemistry / ….
The mark [20] stands for this setting: systemic / hematology / hematocrit (hct) / hematocrit (hct) + systemic / in life observation / body weight / body weight + systemic / in ….
Setting [21] is: systemic / hematology / [other] / [other] + systemic / hematology / erythrocyte (rbc) count differential / erythrocyte (rbc) + systemic / ….
Where [22] appears, read: systemic / hematology / erythrocyte (rbc) count differential / erythrocyte (rbc) + systemic / hematology / hematocrit (hct) / hematocrit (….
Where [23] appears, read: systemic / hematology / hematocrit (hct) / hematocrit (hct) + systemic / hematology / hemoglobin (hgb) / hemoglobin (hgb) + systemic / ….
[24] abbreviates: systemic / in life observation / body weight / body weight gain.
[25] abbreviates: systemic / organ weight / liver / nos.
Where [26] appears, read: systemic / organ weight / liver / absolute + systemic / organ weight / liver / relative to body weight + systemic / pathology microscopic / ….
Where [27] appears, read: systemic / pathology microscopic / liver / eosinophilic focus + systemic / pathology microscopic / liver / syncytial alteration.
The mark [28] stands for this setting: systemic / pathology microscopic / liver / eosinophilic focus + systemic / pathology microscopic / liver / syncytial alteration + systemic….
Where [29] appears, read: group: cholinesterase, cholinesterase / cholinesterase / cholinesterase / plasma cholinesterase (che).
[30] abbreviates: group: systemic, systemic / clinical chemistry / cholesterol / cholesterol.
The mark [31] stands for this setting: group: systemic, systemic / clinical chemistry / cholesterol / cholesterol + systemic / clinical chemistry / glucose / glucose + systemic / clinical ….
The mark [32] stands for this setting: systemic / in life observation / mortality / mortality + systemic / pathology microscopic / liver / hypertrophy + systemic / pathology ….

Regarding `CCC(C)C(NC(=O)c1ccccc1SSc1ccccc1C(=O)NC(C(=O)O)C(C)CC)C(=O)O` (stereo not drawn) [CI-1012], the LOAEL in the data set on rabbit (setting [16]) is more than 250 mg/kg/day; in the data set on rat [1] it was more than 100 mg/kg/day; in the data set on rat [2] it was more than 500 mg/kg/day; with primate [3] (setting [17]), more than 250 mg/kg/day; in the data set on primate [4] (setting [20]) it was more than 125 mg/kg/day; in the data set with rat [5] (setting [21]), more than 1500 mg/kg/day. In addition, in the data set with rat [6] (setting [23]), the LOAEL was more than 1500 mg/kg/day. In addition, the NEL with rabbit (setting [16]) is 25 mg/kg/day; in the data set with rat [1], less than 25 mg/kg/day; in the data set on rat [2], 50 mg/kg/day; in the data set with primate [3] (setting [18]), less than 50 mg/kg/day; in the data set on primate [4] (setting [19]) it was 25 mg/kg/day; with rat [5] (setting [22]) it was 100 mg/kg/day. Besides, the NEL in the data set with rat [6] (setting [23]) came out at 100 mg/kg/day. For the same molecule, the NOAEL in the data set on rabbit (setting [16]) is not below 250 mg/kg/day; with rat [1] it was not below 100 mg/kg/day; with rat [2] it was not below 500 mg/kg/day; in the data set with primate [3] (setting [17]), not below 250 mg/kg/day; in the data set with primate [4] (setting [20]), not below 125 mg/kg/day; in the data set on rat [5] (setting [21]), not below 1500 mg/kg/day. Moreover, the NOAEL in the data set with rat [6] (setting [23]) is not below 1500 mg/kg/day. Besides, the LEL turned out to be 100 mg/kg/day in the data set with rabbit (reproductive / reproductive performance / aborted / aborted + systemic / in life observation / body weight / body weight gain + systemic / …); 25 mg/kg/day in the data set with rat [1]; 100 mg/kg/day in the data set with rat [2]; 50 mg/kg/day in the data set on primate [3] (setting [18]); 75 mg/kg/day in the data set on primate [4] (setting [19]); 250 mg/kg/day in the data set on rat [5] (setting [22]). Moreover, the LEL with rat [6] (systemic / organ weight / spleen / absolute + systemic / pathology microscopic / stomach / hyperplasia) worked out at 250 mg/kg/day.

As for `O=c1ccc2ccccc2o1` [Coumarin], the LEL in the data set with mouse [7] (setting [24]) amounted to 85.8 mg/kg/day; with mouse [8] (systemic / hematology / mean corpuscular (cell) volume (mcv) / mean corpuscular (cell) volume (mcv) + systemic / hematology / mean …) it was 38 mg/kg/day; in the data set with rat [9], 400 mg/kg/day; with mouse [10] (setting [28]), 50 mg/kg/day; in the data set with mouse [11], 300 mg/kg/day; with rat [12] (setting [29]), 16 mg/kg/day. Further, the LEL in the data set with rat [12] (setting [30]) turned out to be 13 mg/kg/day; with rat [13] (systemic / hematology / erythrocyte (rbc) count differential / erythrocyte (rbc) + systemic / hematology / mean corpuscular (cell) volume (…), 75 mg/kg/day; in the data set on rat [14], 25 mg/kg/day. Besides, the NEL is 26.2 mg/kg/day with mouse [7] (systemic / in life observation / body weight / body weight gain + systemic / in life observation / food consumption / food efficiency); 19 mg/kg/day in the data set with mouse [8] (systemic / in life observation / body weight / body weight + systemic / in life observation / body weight / body weight gain + systemic / …); 200 mg/kg/day with rat [9]; less than 50 mg/kg/day in the data set with mouse [10] (setting [28]); 150 mg/kg/day with mouse [11]; less than 16 mg/kg/day in the data set on rat [12] (setting [29]). Besides, the values for the NEL in the data set on rat [12] (setting [30]), in the data set on rat [13] (setting [26]) and in the data set with rat [14] were less than 13 mg/kg/day, 38 mg/kg/day and less than 25 mg/kg/day, respectively. The LOAEL is more than 271 mg/kg/day in the data set with mouse [7] (setting [25]); 300 mg/kg/day in the data set with mouse [8] (setting [26]); more than 400 mg/kg/day in the data set with rat [9]; 50 mg/kg/day in the data set on mouse [10] (setting [27]); 300 mg/kg/day in the data set on mouse [11]; more than 283 mg/kg/day with rat [12] (setting [29]). For the same molecule, the figures for the LOAEL with rat [12] (setting [31]), in the data set on rat [13] (setting [26]) and in the data set with rat [14] were more than 234 mg/kg/day, 150 mg/kg/day and 25 mg/kg/day, respectively. The NOAEL with mouse [7] (setting [25]) was not below 271 mg/kg/day; in the data set on mouse [8] (setting [26]) it was 150 mg/kg/day; in the data set on rat [9] it was not below 400 mg/kg/day; with mouse [10] (setting [27]), less than 50 mg/kg/day; in the data set on mouse [11], 150 mg/kg/day; in the data set on rat [12] (setting [29]) it was not below 283 mg/kg/day. In addition, the NOAEL with rat [12] (setting [31]) was not below 234 mg/kg/day; with rat [13] (setting [26]), 75 mg/kg/day; in the data set on rat [14], less than 25 mg/kg/day.

Consider `ClC1C(Cl)C(Cl)C(Cl)C(Cl)C1Cl` (stereo not drawn) [beta-Hexachlorocyclohexane], for which, in the data set on rat [15] (setting [24]), the LEL amounted to 6.25 mg/kg/day and the NEL was less than 6.25 mg/kg/day. Further, in the data set on rat [15] (setting [32]), the LOAEL was more than 12.5 mg/kg/day and the NOAEL is not below 12.5 mg/kg/day.
